The target of assay [1] is T1, G12D-mutant human KRAS (amino acid residues 1-188) (Homo sapiens, UniProt P01116, G12D).
T1 construct: G12D or G12C-mutant human KRAS (amino acid residues 1-188) with FLAG tag; made in house; host or cells: E. coli
The assay can be described thus: KRAS Binding Disruption Assay (AlphaScreen; biotinylated KRpep-2d analogue or RAF1-RBD), G12D. The following applies: KRAS G12D; geometric mean; read-out: KRAS GMean IC50 (uM) MUTATION: G12D. A digest of the protocol: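 Mutant KRAS (5-20 nM) incubated 1 h at 25° C with test compound and 5-20 nM biotinylated KRpep-2d analogue or RAF1-RBD in 20 mM HEPES pH 7.5, 100 mM NaCl, 5 mM MgCl2, 0.01% Tween-20, 0.01% BSA.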
Background: In Alpha technology, singlet oxygen from a donor bead excites a nearby acceptor bead.

The target in assay [2] is T2, G12V-mutant human KRAS (amino acid residues 1-188) (Homo sapiens, UniProt P01116, G12V).
T2 construct: G12V-mutant human KRAS (amino acid residues 1-188) with FLAG tag was purified from E. coli; made in house; host or cells: E. coli
Briefly: KRAS Binding Competition Assay (AlphaScreen; biotinylated KRpep-2d analogue), G12V. The following applies: geometric mean, read-out: KRAS GMean IC50 (uM) MUTATION: G12V.

Consider `O=C(NC1CCNC1)N1[C@@H]2CC[C@H]1CN(c1nc(OCC34CCCN3CCC4)nc3cc(-c4cc(O)cc5ccccc45)ccc13)C2` (stereo partly drawn) [P-0097, (1R,5S)-3-(7-(3-hydroxynaphthalen-1-yl)-2-((tetrahydro-1H-pyrrolizin-7a(5H)-yl)methoxy)quinazolin-4-yl)-N-(pyrrolidin-3-yl)-3,8-diazabicyclo[3.2.1]octane-8-carboxamide], for which the IC50 in assay [1] and in assay [2] was 0.0001 to 10 µM each time.
`O=C(OC1CCOC1)N1[C@@H]2CC[C@H]1CN(c1nc(OCC34CCCN3CCC4)nc3cc(-c4cc(O)cc5ccccc45)ccc13)C2` (stereo partly drawn) [P-0098, Tetrahydrofuran-3-yl (1R,5S)-3-(7-(3-hydroxynaphthalen-1-yl)-2-((tetrahydro-1H-pyrrolizin-7a(5H)-yl)methoxy)quinazolin-4-yl)-3,8-diazabicyclo[3.2.1]octane-8-carboxylate]: the IC50 in assay [1] and in assay [2] was 0.0001 to 10 µM throughout.
Turning to `Cc1ccc2[nH]ncc2c1-c1ccc2c(N3C[C@H]4CC[C@@H](C3)N4)nc(OCC34CCCN3CCC4)nc2c1F` [P-0101, 4-((1R,5S)-3,8-diazabicyclo[3.2.1]octan-3-yl)-8-fluoro-7-(5-methyl-1H-indazol-4-yl)-2-((tetrahydro-1H-pyrrolizin-7a(5H)-yl)methoxy)quinazoline], the IC50 was 0.0001 to 10 µM in assay [1] and 10 to 100 µM in assay [2].
In the case of `CN1CCC[C@H]1COc1nc(N2C[C@H]3CC[C@@H](C2)N3C(=O)CO)c2ccc(-c3cc(O)cc4ccccc34)c(F)c2n1` [P-0104, 1-((1R,5S)-3-(8-fluoro-7-(3-hydroxynaphthalen-1-yl)-2-(((S)-1-methylpyrrolidin-2-yl)methoxy)quinazolin-4-yl)-3,8-diazabicyclo[3.2.1]octan-8-yl)-2-hydroxyethan-1-one], the IC50 in assay [1] and in assay [2] was 0.0001 to 10 µM in each case.
For the molecule `CN1CCC[C@H]1COc1nc(N2C[C@H]3CC[C@@H](C2)N3C(=O)CCS(N)(=O)=O)c2ccc(-c3cc(O)cc4ccccc34)c(F)c2n1` [P-0105, 3-((1R,5S)-3-(8-fluoro-7-(3-hydroxynaphthalen-1-yl)-2-(((S)-1-methylpyrrolidin-2-yl)methoxy)quinazolin-4-yl)-3,8-diazabicyclo[3.2.1]octan-8-yl)-3-oxopropane-1-sulfonamide], the half-maximal inhibitory concentration (IC50) in assay [1] and in assay [2] was 0.0001 to 10 µM in each case.
As for `CN1CCC[C@H]1COc1nc(N2C[C@H]3CC[C@@H](C2)N3C(=O)c2n[nH]c(=O)[nH]2)c2ccc(-c3cc(O)cc4ccccc34)c(F)c2n1` [P-0107, 5-((1R,5S)-3-(8-fluoro-7-(3-hydroxynaphthalen-1-yl)-2-(((S)-1-methylpyrrolidin-2-yl)methoxy)quinazolin-4-yl)-3,8-diazabicyclo[3.2.1]octane-8-carbonyl)-2,4-dihydro-3H-1,2,4-triazol-3-one], the IC50 in assay [1] and in assay [2] was 0.0001 to 10 µM each time.
As for `O=C(c1c[nH]c(=O)[nH]c1=O)N1[C@@H]2CC[C@H]1CN(c1nc(OCC34CCCN3CCC4)nc3cc(-c4cc(O)cc5ccccc45)ccc13)C2` [P-0108, 5-((1R,5S)-3-(7-(3-hydroxynaphthalen-1-yl)-2-((tetrahydro-1H-pyrrolizin-7a(5H)-yl)methoxy)quinazolin-4-yl)-3,8-diazabicyclo[3.2.1]octane-8-carbonyl)pyrimidine-2,4(1H,3H)-dione], the IC50 in assay [1] and in assay [2] was 0.0001 to 10 µM each time.
For the molecule `Cc1cc(C(=O)N2[C@@H]3CC[C@H]2CN(c2nc(OCC45CCCN4CCC5)nc4cc(-c5cc(O)cc6ccccc56)ccc24)C3)[nH]c(=O)n1` [P-0109, 6-((1R,5S)-3-(7-(3-hydroxynaphthalen-1-yl)-2-((tetrahydro-1H-pyrrolizin-7a(5H)-yl)methoxy)quinazolin-4-yl)-3,8-diazabicyclo[3.2.1]octane-8-carbonyl)-4-methylpyrimidin-2(1H)-one], the values for the IC50 in assay [1] and in assay [2] were 0.0001 to 10 µM and 10 to 100 µM, respectively.
Consider `O=C([C@@H]1CCNC1)N1[C@@H]2CC[C@H]1CN(c1nc(OCC34CCCN3CCC4)nc3cc(-c4cc(O)cc5ccccc45)ccc13)C2` [P-0111, ((1R,5S)-3-(7-(3-hydroxynaphthalen-1-yl)-2-((tetrahydro-1H-pyrrolizin-7a(5H)-yl)methoxy)quinazolin-4-yl)-3,8-diazabicyclo[3.2.1]octan-8-yl)((R)-pyrrolidin-3-yl)methanone], for which the IC50 in assay [1] and in assay [2] was 0.0001 to 10 µM each time.
`O=C([C@H]1CCNC1)N1[C@@H]2CC[C@H]1CN(c1nc(OCC34CCCN3CCC4)nc3cc(-c4cc(O)cc5ccccc45)ccc13)C2` [P-0112, ((1R,5S)-3-(7-(3-hydroxynaphthalen-1-yl)-2-((tetrahydro-1H-pyrrolizin-7a(5H)-yl)methoxy)quinazolin-4-yl)-3,8-diazabicyclo[3.2.1]octan-8-yl)((S)-pyrrolidin-3-yl)methanone]: the IC50 in assay [1] and in assay [2] was 0.0001 to 10 µM each time.
Turning to `O=C(CN1[C@@H]2CC[C@H]1CN(c1nc(OCC34CCCN3CCC4)nc3cc(-c4cc(O)cc5ccccc45)ccc13)C2)C1CCNCC1` [P-0138, 2-((1R,5S)-3-(7-(3-hydroxynaphthalen-1-yl)-2-((tetrahydro-1H-pyrrolizin-7a(5H)-yl)methoxy)quinazolin-4-yl)-3,8-diazabicyclo[3.2.1]octan-8-yl)-1-(piperidin-4-yl)ethan-1-one], the IC50 in assay [1] and in assay [2] was 0.0001 to 10 µM throughout.
On to `COCCS(=O)(=O)N1[C@@H]2CC[C@H]1CN(c1nc(OCC34CCCN3CCC4)nc3cc(-c4cc(O)cc5ccccc45)ccc13)C2` [P-0139, 4-(4-((1R,5S)-8-((2-methoxyethyl)sulfonyl)-3,8-diazabicyclo[3.2.1]octan-3-yl)-2-((tetrahydro-1H-pyrrolizin-7a(5H)-yl)methoxy)quinazolin-7-yl)naphthalen-2-ol], for which the IC50 in assay [1] and in assay [2] was 10 to 100 µM in each case.
As for `O=C(N[C@@H]1C[C@H]2CC[C@@H]1O2)N1[C@@H]2CC[C@H]1CN(c1nc(OCC34CCCN3CCC4)nc3cc(-c4cc(O)cc5ccccc45)ccc13)C2` [P-0140, (1R,5S)-N-((1S,2R,4R)-7-oxabicyclo[2.2.1]heptan-2-yl)-3-(7-(3-hydroxynaphthalen-1-yl)-2-((tetrahydro-1H-pyrrolizin-7a(5H)-yl)methoxy)quinazolin-4-yl)-3,8-diazabicyclo[3.2.1]octane-8-carboxamide], the IC50 in assay [1] and in assay [2] was 0.0001 to 10 µM throughout.
For `CC(C)(O)CNC(=O)N1[C@@H]2CC[C@H]1CN(c1nc(OCC34CCCN3CCC4)nc3cc(-c4cc(O)cc5ccccc45)ccc13)C2` [P-0141, (1R,5S)-N-(2-hydroxy-2-methylpropyl)-3-(7-(3-hydroxynaphthalen-1-yl)-2-((tetrahydro-1H-pyrrolizin-7a(5H)-yl)methoxy)quinazolin-4-yl)-3,8-diazabicyclo[3.2.1]octane-8-carboxamide], the IC50 in assay [1] and in assay [2] was 0.0001 to 10 µM throughout.
For the molecule `O=C(N[C@H]1CCCNC1)N1[C@@H]2CC[C@H]1CN(c1nc(OCC34CCCN3CCC4)nc3cc(-c4cc(O)cc5ccccc45)ccc13)C2` [P-0142, (1R,5S)-3-(7-(3-hydroxynaphthalen-1-yl)-2-((tetrahydro-1H-pyrrolizin-7a(5H)-yl)methoxy)quinazolin-4-yl)-N-((S)-piperidin-3-yl)-3,8-diazabicyclo[3.2.1]octane-8-carboxamide], the half-maximal inhibitory concentration (IC50) in assay [1] and in assay [2] was 0.0001 to 10 µM each time.

Broadly, the IC50 is the concentration at which inhibition is half-maximal.
